Reference: US10898609B2, “Tissue decellularization methods” (priority 2015, dated 2021)

Key:
Assay type in all cases: cell-based, Sprague Dawley rats
[1] = system: active caspase 3; assay: Immunochemistry for active caspase 3 on nerve tissue sections; details: 10 μM camptothecin, 2 days, 37° C., ex vivo nerve; vs media control
Protocol: (§1) Peripheral nerves were harvested from Sprague Dawley rats and decellularized according to an apoptosis-assisted protocol using 10 μM camptothecin in non-supplemented media at 37° C. for 2 days. Tissue in media without camptothecin was used as a control. Apoptotic agent treatment was succeeded by washes in saline buffered solutions to optimize cell removal. The degree of apoptosis, cellular removal, and matrix preservation was assessed using immunochemistry on nerve tissue sections and fluorescence imaging. Antibodies used to identify apoptosis, cell removal, and tissue preservation include those against active caspase 3 (Abcam); neurofilament (RT-97, DSHB) and S100 (Dako); and laminin (Sigma), respectively. […] Total DNA content was quantified using a Picogreen DNA assay (Life Technologies) according to manufacturer's instructions.

[2] = system: peripheral nerve; assay: Total DNA content of decellularized peripheral nerve, Picogreen DNA assay; details: 1 day
Protocol: Peripheral nerves were harvested from Sprague Dawley rats and decellularized according to an apoptosis-assisted protocol using 5 μM camptothecin in non-supplemented media at 37° C. for 1 day. Tissue in media without camptothecin, an apoptotic agent, was used as a control. Apoptotic agent treatment was succeeded by washes in saline buffered solutions to optimize cell removal. Furthermore, the tissue was treated with 75 u/mL DNAse for 24 hours to ensure DNA removal. The degree of apoptosis, cellular removal, and matrix preservation was assessed using immunochemistry on nerve tissue sections and fluorescence imaging (FIG. 2). Antibodies used to identify apoptosis, cell removal, and tissue preservation include those against active caspase 3 (Abcam); neurofilament (RT-97, DSHB) and S100 (Dako); and laminin (Sigma), respectively. […] FIGS. 2B and 2C show nerves treated with 5 μM for 1 day, washed with a hypertonic, and either washed with a hypertonic solution or treated for 24 hours with DNAse, respectively. […] FIGS. 2E and 2F show treatment with higher camptothecin (10 μM), again for 1 day, and washed similarly to tissue in FIGS. 2B and 2C. These images depict 1) apoptosis induction is necessary prior to washing to effectively remove cellular components and 2) combing apoptosis induction with washes in non-isotonic solutions achieves cellular removal of peripheral nerve tissue. Total DNA content was quantified using a Picogreen DNA assay (Life Technologies) according to manufacturer's instructions.

[3] = system: peripheral nerve; assay: TUNEL assay of apoptosis-mediated DNA fragmentation in nerve tissue; details: 10 μM camptothecin, 2 days, 37° C., ex vivo nerve; vs media control
Protocol: as §1

CC[C@@]1(O)C(=O)OCc2c1cc1n(c2=O)Cc2cc3ccccc3nc2-1 [camptothecin]
active caspase 3 (early mediator of apoptosis) [1]: caspase 3 activation
reduction in DNA content compared to fresh nerve ([2]; 5 μM camptothecin, 37° C., hypertonic and hypotonic washes): 71.9%
reduction in DNA content compared to fresh nerve ([2]; 5 μM camptothecin, hypotonic wash replaced with DNAse treatment (75 u/mL, 24 hours)): 95.1%
reduction in DNA content compared to fresh nerve ([2]; 10 μM camptothecin, hypertonic and hypotonic washes): 57.3%
reduction in DNA content compared to fresh nerve ([2]; 10 μM camptothecin, hypotonic wash replaced with DNAse treatment (75 u/mL, 24 hours)): 95.8%
DNA fragmentation (TUNEL staining) [3]: DNA fragmentation
